Consider 19 molecules from patent EP1000059B1, “TRICYCLIC VASOPRESSIN AGONISTS” (Wyeth, priority 1997, dated 1999).

In test [1] the test system is Vasopressin V2. Kind of test: Vasopressin V2 agonist effects of test compounds in normal conscious water-loaded rats. The test is classed as in vivo. Particulars: oral dose of 10 mg/kg, urine collected for four hours, Sprague-Dawley (CD) rats; for Changes in Urinary Osmolality: osmolality changes expressed as percent of control; for Urine Volume (% decrease): percent decrease in urine volume vs. control, vehicle 20% DMSO in 2.5% preboiled corn starch. From the text:
Vasopressin V2 Agonist Effects of Test Compounds in Normal Conscious Water-Loaded Rats:
Male or female normotensive Sprague-Dawley rats (Charles River Laboratories, Inc., Kingston, NY) of 350-500 g body weight were supplied with standard rodent diet (Purina Rodent Lab. Chow 5001) and water ad libitum. On the day of test, rats were placed individually into metabolic cages equipped with devices to separate the feces from the urine and containers for collection of urine. A test compound or a reference agent was given at an oral dose of 10 mg/kg in a volume of 10 ml/kg. The vehicle used was 20% dimethylsulfoxide (DMSO) in 2.5% preboiled corn starch. Thirty minutes after dosing the test compound, rats were gavaged with water at 30 ml/kg into the stomach using a feeding needle. During the test, rats were not provided with water or food. Urine was collected for four hours after dosing of the test compound. At the end of four hours, urine volume was measured. Urinary osmolality was determined using a Fiske One-Ten Osmometer (Fiske Associates, Norwood, MA, 02062) or an Advanced CRYOMATIC Osmometer, Model 3C2 (Advanced Instruments, Norwood, MA). Determinations of Na^+, K^+ and Cl^- ion were carried out using ion specific electrodes in a Beckman SYNCHRON EL-ISE Electrolyte System analyzer. The urinary osmolality should increase proportionally. In the screening test, two rats were used for each compound. If the difference in the urine volume of the two rats was greater than 50%, a third rat was used.

The subject of test [2] is Vasopressin V2. Described as above. The class given is in vivo. Particulars: Sprague-Dawley (CD) rats; for Urine Volume (% decrease): percent decrease in urine volume vs. control, dose 1 mg/kg; for Changes in Urinary Osmolality: percent of control.

Structures can show the parent of a compound that is named as a salt.

For the molecule `Cc1ccn(-c2ccc(C(=O)N3Cc4cccnc4Nc4ccccc43)c(Cl)c2)n1` [Example 1, [2-Chloro-4-(3-methyl-pyrazol-1-yl)-phenyl]-(5,11-dihydro-pyrido [2,3-b] [1,5]benzodiazepin-6-yl)-methanone], in the test on Vasopressin V2 [1], the “Changes in Urinary Osmolality” value is recorded as 272% of control and the “Urine Volume (% decrease)” value amounted to 80 % decrease.

Regarding `Cc1ccnn1-c1ccc(C(=O)N2Cc3cccnc3Nc3ccccc32)c(Cl)c1` [Example 2, [2-Chloro-4-(5-methyl-pyrazol-1-yl)-phenyl] (5,11-dihydro-pyrido[2,3-b] [1,5]benzodiazepin-6-yl)-methanone], in the test on Vasopressin V2 [1], the “Changes in Urinary Osmolality” value is given as 288% of control and the “Urine Volume (% decrease)” value is 61 % decrease.

For the molecule `Cc1ccn(-c2ccc(C(=O)N3Cc4cccnc4Nc4ccccc43)c(Br)c2)n1` [Example 3, [2-Bromo-4-(3-methyl-pyrazol-1-yl)-phenyl]-(5,11-dihydro-pyrido[2,3-b] [1,5]benzodiazepin-6-yl)-methanone], in the test with Vasopressin V2 [1], the “Changes in Urinary Osmolality” value is 346% of control and the “Urine Volume (% decrease)” value came to 85 % decrease.

Consider `Cc1ccn(-c2ccc(C(=O)N3Cc4cccnc4Nc4ccccc43)c(C(F)(F)F)c2)n1` [Example 4, (5,11-Dihydro-pyrido[2,3-b][1,5]benzodiazepin-6-yl)-[4-(3-methyl-pyrazol-1-yl)-2-trifluoromethyl-phenyl]-methanone], for which, in the test on Vasopressin V2 [1], the “Changes in Urinary Osmolality” value is 339% of control and the “Urine Volume (% decrease)” value is recorded as 87 % decrease.

For the molecule `Cc1ccnn1-c1ccc(C(=O)N2Cc3cccnc3Nc3ccccc32)c(C(F)(F)F)c1` [Example 6, (5,11-Dihydro-pyrido[2,3-b][1,5]benzodiazepin-10-yl)-[4-(5-methyl-pyrazol-1-yl)-2-trifluoromethyl-phenyl]-methanone solvate with 0.09 dichloromethane and 0.13 ethyl acetate], in the test on Vasopressin V2 [1], the “Changes in Urinary Osmolality” value is listed as 103% of control and the “Urine Volume (% decrease)” value is recorded as 25 % decrease.

On to `O=C(c1ccc(-n2ccc(C(F)(F)F)n2)cc1C(F)(F)F)N1Cc2cccnc2Nc2ccccc21` [Example 7, (5,11-Dihydro-pyrido[2,3-b][1,5]benzodiazepin-6-yl)-[2-trifluoromethyl-4-(3-trifluoromethyl-pyrazol-1-yl)-phenyl]-methanone], for which, in the test with Vasopressin V2 [1], the “Changes in Urinary Osmolality” value is listed as 283% of control and the “Urine Volume (% decrease)” value is reported as 69 % decrease.

In the case of `Cc1ccn(-c2ccc(C(=O)N3Cc4cccnc4N(C)c4ccccc43)c(C(F)(F)F)c2)n1` [Example 8, (5-Methyl-5,11-dihydro-pyrido[2,3-b][1,5]benzodiazepin-10-yl)-[4-(3-methyl-pyrazol-1-yl)-2-trifluoromethyl-phenyl]methanone], in the test with Vasopressin V2 [1], the “Changes in Urinary Osmolality” value is listed as 298% of control and the “Urine Volume (% decrease)” value is 72 % decrease.

For `Cc1ccn(-c2ccc(C(=O)N3Cc4cccnc4Nc4ccccc43)c(F)c2)n1` [Example 9, (5,11-Dihydro-pyrido[2,3-b][1,5]benzodiazepin-10-yl)-[2-fluoro-4-(3-methyl-pyrazol-1-yl)-phenyl]-methanone 0.19 hydrate], in the test on Vasopressin V2 [1], the “Changes in Urinary Osmolality” value is recorded as 372% of control and the “Urine Volume (% decrease)” value is listed as 59 % decrease.

Take `Cc1ccn(-c2cc(F)ccc2C(=O)N2Cc3cccnc3Nc3ccccc32)n1` [Example 10, (5,11-Dihydro-pyrido[2,3-b][1,5]benzodiazepin-10-yl)-[4-fluoro-2-(3-methyl-pyrazol-1-yl)-phenyl]-methanone solvate with 0.20 ethanol]: in the test with Vasopressin V2 [1], the “Changes in Urinary Osmolality” value is listed as 276% of control and the “Urine Volume (% decrease)” value amounted to 63 % decrease.

For the molecule `Cc1ccn(-c2ccc(C(=O)N3Cc4cccnc4N(C)c4ccccc43)c(Cl)c2)n1` [Example 11, [2-Chloro-4-(3-methyl-pyrazol-1-yl)-phenyl]-(5-methyl-5,11-dihydro-pyrido[2,3-b][1,5]benzodiazepin-10-yl)-methanone], in the test on Vasopressin V2 [1], the “Changes in Urinary Osmolality” value is 375% of control and the “Urine Volume (% decrease)” value was found to be 71 % decrease.

In the case of `Cc1ccn(-c2ccc(C)c(C(=O)N3Cc4cccnc4Nc4ccccc43)c2)n1` [Example 12, (5,11-Dihydro-pyrido[2,3-b][1,5]benzodiazepin-10-yl)-[2-methyl-5-(3-methyl-pyrazol-1-yl)-phenyl]-methanone], in the test on Vasopressin V2 [1], the “Changes in Urinary Osmolality” value is 101% of control and the “Urine Volume (% decrease)” value was -2 % decrease.

In the case of `CC(C)(C)c1ccn(-c2ccc(C(=O)N3Cc4cccnc4Nc4ccccc43)c(C(F)(F)F)c2)n1` [Example 13, [4-(3-tert-Butyl-pyrazol-1-yl)-2-trifluoromethyl-phenyl]-(5,11-dihydro-pyrido[2,3-b][1,5]benzodiazepin-10-yl)-methanone], in the test on Vasopressin V2 [1], the “Changes in Urinary Osmolality” value is recorded as 106% of control and the “Urine Volume (% decrease)” value turned out to be 6 % decrease.

`Cc1ccn(-c2ccc(C(=O)N3Cc4cccnc4Nc4ccccc43)c(C(F)(F)F)c2)n1` [Example 14, (5,11-Dihydro-pyrido[2,3-b][1,5]benzodiazepin-6-yl)-[4-(3-methyl-pyrazol-1-yl)-2-trifluoromethyl-phenyl]-methanone 1:1 salt with methanesulfonic acid solvate with 0.15 hexane]: in the test with Vasopressin V2 [2], the “Urine Volume (% decrease)” value was 83 (1 mg/kg) % decrease. Moreover, the “Changes in Urinary Osmolality” value in the test with Vasopressin V2 [2] (same row's urine volume cell prints 1 mg/kg (footnote says 10 mg/kg)) is 321% of control.

In the case of `Cc1ccn(-c2ccc(C(=O)N3Cc4cccnc4Nc4ccccc43)c(C(F)(F)F)c2)n1` [Example 15, (5,11-Dihydro-pyrido[2,3-b][1,5]benzodiazepin-6-yl)-[4-(3-methyl-pyrazol-1-yl)-2-trifluoromethyl-phenyl]-methanone 1:1 salt with hydrochloric acid 0.10 dichloromethane solvate], in the test with Vasopressin V2 [2] (starch only), the “Urine Volume (% decrease)” value is listed as 98 (1 mg/kg) starch only % decrease. Also, the “Changes in Urinary Osmolality” value in the test on Vasopressin V2 [2] is 1363% of control.

As for `Cc1ccn(-c2ccc(C(=O)N3Cc4cccnc4Oc4ccccc43)c(Cl)c2)n1` [Example 16, [2-Chloro-4-(3-methyl-pyrazol-1-yl)-phenyl]-(11H-5-oxa-4,10-diazadibenzo[a,d]cyclohepten-10-yl)-methanone], in the test with Vasopressin V2 [1], the “Changes in Urinary Osmolality” value was 142% of control and the “Urine Volume (% decrease)” value came out at 41 % decrease.

With `O=C(c1ccc(-n2ccc(C(F)(F)F)n2)cc1Cl)N1Cc2cccnc2Nc2ccccc21` [Example 17, [2-Chloro-4-(3-trifluoromethyl-pyrazol-1-yl)-phenyl]-(5,11-dihydro-pyrido[2,3-b][1,5]benzodiazepin-6-yl)-methanone], in the test on Vasopressin V2 [1], the “Changes in Urinary Osmolality” value was 262% of control and the “Urine Volume (% decrease)” value stood at 72 % decrease.

With `Cn1ccc(-c2ccc(C(=O)N3Cc4cccnc4Nc4ccccc43)c(Cl)c2)n1` [Example 18, [2-Chloro-4-(1-methyl-1-H-pyrazol-3-yl)-phenyl]-(5,11-dihydro-pyrido[2,3-b][1,5]benzodiazepin-10-yl)-methanone], in the test with Vasopressin V2 [1], the “Changes in Urinary Osmolality” value is on record as 234% of control and the “Urine Volume (% decrease)” value is recorded as 76 % decrease.

For the molecule `CN1c2ccccc2N(C(=O)c2ccc(-c3ccn(C)n3)cc2Cl)Cc2cccnc21` [Example 20, [2-Chloro-4-(1-methyl-1H-pyrazol-3-yl)-phenyl]-(5-methyl-5,11-dihydro-pyrido[2,3-b][1,5]benzodiazepin-10-yl)-methanone], in the test with Vasopressin V2 [1], the “Changes in Urinary Osmolality” value is listed as 89% of control and the “Urine Volume (% decrease)” value is 10 % decrease.

As to `Cc1nc(-c2ccc(C(=O)N3Cc4cccnc4Nc4ccccc43)c(Cl)c2)n[nH]1` [Example 24, [2-Chloro-4-(5-methyl-1H-[1,2,4]triazol-3-yl)-phenyl]-(5,11-dihydro-pyrido[2,3-b][1,5]benzodiazepin-6-yl)-methanone], in the test on Vasopressin V2 [1], the “Changes in Urinary Osmolality” value was 615% of control and the “Urine Volume (% decrease)” value was determined as 86 % decrease.
